Measurements as given in patent publication US12337022B2, “Use of a vegetable extract from salvia haenkei as an active agent in the treatment of heart diseases” (Altergon S.A., priority 2021, dated 2025).

What was measured:
Sprague-Dawley rats = assay: Echocardiography in rat model of DOXO-induced cardiotoxicity; type: in vivo; settings: DOXO-treated animals not receiving SH
Description: For in vivo experiments, considering that a water intake for adult rat is about 30-40 ml/day, 1.25 gr of SH extract was diluted in 300 ml of water, achieving a daily dose of […] (extract/body weight).
Adult female Sprague-Dawley rats (250-300 g body weight) were injected with six intraperitoneal doses of DOXO (Sigma) delivered at regular intervals from Day 1 to Day 11 (cumulative dose=15 mg/kg). During the treatment, rats were given ad libitum access to water containing SH. Rats received a daily dose of about 0.5 mg/Kg of SH.
Echocardiographic assessment, animals were anaesthetized at the indicated time points with 2.0-2.5% isoflurane. Transthoracic echocardiography was performed using the Vevo 2100 high-resolution imaging system (VisualSonic) equipped with a 13-24-MHz linear transducer. Analyses were performed on Days 0 (baseline), 12, 19. Two-dimensional short-axis M-mode echocardiography was performed. All M-mode tracing measurements were averaged from a minimum of three cardiac cycles. Investigators were blinded to the animals' identity.

Description for beating human iPS-CM: Traces were recorded every 24 hours for 7 consecutive days from the beginning of the DOXO treatment (day 0-3 h).

COc1cccc2c1C(=O)c1c(O)c3c(c(O)c1C2=O)C[C@@](O)(C(=O)CO)C[C@@H]3O[C@H]1C[C@H](N)[C@H](O)[C@H](C)O1 [DOXO, Doxorubicin]
QT interval (beating human iPS-CM): induces prolongation on QT interval
left end systolic volume (LVESV) (Sprague-Dawley rats): increased over time
left ventricular ejection fraction (LVEF) (Sprague-Dawley rats): significant decrease
